This is an account of results in ChEMBL document CHEMBL1201862, “PubChem BioAssay data set” (2004).

Structures are written as SMILES.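 How tested: cells in 96-well plates exposed to compound for 48 hours at five concentrations. At the GI50, growth is halved.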 Activity calls are given as the source filed them. Cut-off read from the data, not from the text of the source: active = GI50 up to about 1.1 µM and inactive = higher.

Some test systems named below: A549; ACHN; COLO 205; HCT-116; HT-29; IGROV-1; KM12; LXFL 529; MOLT-4; Malme-3M; NCI-H226; OVCAR-8; RPMI-8226; SF-539; SNB-75; SW-620; BT-549; HOP-92; MDA-N; T47D.
Common to all, as to test: NCI anticancer screen, dose series, 48 h

In the case of `O=C1NC2(C=Cc3c(ccc4ccccc34)O2)Oc2ccccc21` (stereo not drawn), the GI50 in the assay with A549 was 18.7 µM (inactive); in the assay on ACHN, 18.7 µM (inactive); in the assay on COLO 205, 14.8 µM (inactive); in the assay with HCT-116, 12.7 µM (inactive); with HT-29, 11.3 µM (inactive); in the assay on IGROV-1, 28.1 µM (inactive). Besides, the GI50 with KM12 is 5.18 µM (inactive); in the assay with LXFL 529, 18.3 µM (inactive); with MOLT-4, 7.8 µM (inactive); in the assay with Malme-3M it was 28.1 µM (inactive); with NCI-H226 it was 26.5 µM (inactive); in the assay on OVCAR-8, 26.9 µM (inactive). For the same molecule, the GI50 in the assay on RPMI-8226 is 6.08 µM (inactive); in the assay with SF-539, 15.5 µM (inactive); in the assay with SNB-75, 15.1 µM (inactive); in the assay with SW-620, 15 µM (inactive).
For the molecule `CC1CC2C(=O)N(c3ccccc3)C(=O)C2c2[nH]c3ccccc3c21` (stereo not drawn), the GI50 with A549 is 94 µM (inactive); in the assay on ACHN it was 57.7 µM (inactive); with COLO 205, 73.3 µM (inactive); in the assay with HT-29, > 100 µM (inactive); in the assay with IGROV-1, > 100 µM (inactive); in the assay with KM12 it was 58.5 µM (inactive). Moreover, the GI50 in the assay with LXFL 529 is 42.5 µM (inactive); with MOLT-4 it was 28.4 µM (inactive); in the assay with Malme-3M it was 46.1 µM (inactive); with OVCAR-8, 59.3 µM (inactive); in the assay with RPMI-8226, 37.6 µM (inactive); in the assay with SF-539 it was 38.8 µM (inactive). Moreover, the GI50 in the assay with SNB-75 is 28.9 µM (inactive); with SW-620, > 100 µM (inactive).
Consider `CCc1ccccc1NC(=O)C(=O)C(C(=O)c1ccc(OC)cc1)c1ccc(OC)cc1` (stereo not drawn), for which the GI50 in the assay on A549, in the assay on ACHN, in the assay with COLO 205, in the assay with HCT-116, in the assay on HT-29 and with IGROV-1 was > 100 µM (inactive) each time. Moreover, the GI50 with KM12 was > 100 µM (inactive); in the assay on LXFL 529, > 100 µM (inactive); in the assay with MOLT-4 it was 94.2 µM (inactive); in the assay with Malme-3M, > 100 µM (inactive); with NCI-H226, > 100 µM (inactive); in the assay with OVCAR-8, > 100 µM (inactive). For the same molecule, the GI50 in the assay on RPMI-8226, with SF-539 and in the assay on SW-620 was > 100 µM (inactive) each time.
For the molecule `CN(OC(=O)CC(=O)c1ccccc1)C(=O)Cc1ccccc1`, the GI50 in the assay with A549, in the assay with ACHN, with COLO 205, with HCT-116, in the assay on HT-29 and with IGROV-1 was > 100 µM (inactive) throughout. In addition, the GI50 in the assay on KM12 was > 100 µM (inactive); in the assay on LXFL 529 it was > 100 µM (inactive); in the assay on Malme-3M it was > 100 µM (inactive); with NCI-H226 it was > 100 µM (inactive); with OVCAR-8, > 100 µM (inactive); in the assay on RPMI-8226 it was 46.7 µM (inactive). Also, the GI50 with SF-539 and in the assay on SW-620 was > 100 µM (inactive) each time.
Consider `CN1CCCC(C(=O)OCC(=O)C2(O)CCC3C4CCC5=CC(=O)CCC5(C)C4C(O)CC32C)C1` (stereo not drawn), for which the GI50 is 16.4 µM (inactive) in the assay with A549; 17.9 µM (inactive) in the assay on ACHN; 16.7 µM (inactive) in the assay on BT-549; 18 µM (inactive) with COLO 205; 8.97 µM (inactive) with HCT-116; 50.9 µM (inactive) in the assay with HOP-92. For the same molecule, the GI50 in the assay on HT-29 is 10.8 µM (inactive); in the assay with IGROV-1, 23.4 µM (inactive); in the assay with KM12 it was 25.2 µM (inactive); in the assay with MDA-N, 10.7 µM (inactive); with MOLT-4, 18.7 µM (inactive); in the assay with Malme-3M, 17 µM (inactive). Also, the GI50 in the assay with NCI-H226 is 17.1 µM (inactive); in the assay on OVCAR-8, 15 µM (inactive); with RPMI-8226, 4.23 µM (inactive); in the assay with SF-539, 2.12 µM (inactive); in the assay on SNB-75, 4.85 µM (inactive); with SW-620, 6.27 µM (inactive). The GI50 in the assay on T47D is 10.3 µM (inactive).
Turning to `COc1ccc(C2C(C#N)=C(S)N(C3OC(CO)C(O)C(O)C3O)C(C)=C2C(C)=O)cc1` (stereo not drawn), the GI50 is > 100 µM (inactive) in the assay with A549; > 100 µM (inactive) with ACHN; 92 µM (inactive) in the assay on BT-549; > 100 µM (inactive) in the assay with COLO 205; > 100 µM (inactive) in the assay on HCT-116; 29 µM (inactive) in the assay on HOP-92. For the same molecule, the GI50 in the assay with HT-29 is > 100 µM (inactive); in the assay with IGROV-1, > 100 µM (inactive); with KM12, > 100 µM (inactive); in the assay on MDA-N, 72.3 µM (inactive); in the assay on MOLT-4, 40.8 µM (inactive); with Malme-3M, > 100 µM (inactive). In addition, the GI50 in the assay on NCI-H226 is > 100 µM (inactive); in the assay on OVCAR-8 it was > 100 µM (inactive); in the assay with RPMI-8226, 62.1 µM (inactive); in the assay with SF-539, > 100 µM (inactive); in the assay with SNB-75, 42.7 µM (inactive); in the assay on SW-620, > 100 µM (inactive). In addition, the GI50 in the assay with T47D was 30.5 µM (inactive).
With `Cn1nc(-c2ccccc2)c(N=[N+]=[N-])cc1=O`, the GI50 in the assay with A549, in the assay with ACHN, in the assay on COLO 205, in the assay with HCT-116, in the assay with HT-29 and in the assay with IGROV-1 was > 100 µM (inactive) throughout. Besides, the GI50 with KM12, with LXFL 529, with MOLT-4, with Malme-3M, in the assay with NCI-H226 and in the assay on OVCAR-8 was > 100 µM (inactive) in each case. The GI50 with RPMI-8226, in the assay with SF-539 and with SW-620 was > 100 µM (inactive) in each case.
Consider `Cc1cc2ccccc2n1CC(=O)N1CCCC1`, for which the GI50 in the assay with A549, with ACHN, with BT-549, in the assay with COLO 205, in the assay on HCT-116 and with HOP-92 was > 100 µM (inactive) throughout. In addition, the GI50 in the assay with HT-29, in the assay on IGROV-1, in the assay on KM12, in the assay on MDA-N, with MOLT-4 and in the assay with Malme-3M was > 100 µM (inactive) each time. In addition, the GI50 in the assay on NCI-H226, in the assay on OVCAR-8, in the assay with RPMI-8226, in the assay on SF-539, with SNB-75 and in the assay with SW-620 was > 100 µM (inactive) in each case. In addition, the GI50 with T47D is > 100 µM (inactive).
Regarding `CN(C)c1ccc(/C=C2\Cc3ccccc3C2=O)cc1Br`, the GI50 in the assay on A549 was 61.4 µM (inactive); in the assay on ACHN it was 45.8 µM (inactive); in the assay with COLO 205, 92.9 µM (inactive); with HT-29, 34.8 µM (inactive); in the assay with IGROV-1, > 100 µM (inactive); in the assay with KM12, 43.2 µM (inactive). For the same molecule, the GI50 is 33.8 µM (inactive) in the assay on LXFL 529; 28.5 µM (inactive) in the assay on MOLT-4; 31.8 µM (inactive) in the assay with Malme-3M; 63.5 µM (inactive) in the assay on OVCAR-8; 24.1 µM (inactive) in the assay with RPMI-8226; 38.5 µM (inactive) in the assay with SNB-75. Also, in the assay on SW-620, the GI50 is 59.3 µM (inactive).
Take `O=C(Nn1c(-c2ccccc2)nc2ccccc2c1=O)c1ccccc1O`: the GI50 in the assay on A549 is 36.8 µM (inactive); in the assay with ACHN, 37.8 µM (inactive); in the assay on BT-549, 38.6 µM (inactive); in the assay on COLO 205, 67.3 µM (inactive); with HCT-116 it was 33.5 µM (inactive); in the assay on HOP-92, 27.2 µM (inactive). The GI50 in the assay on HT-29 was 61.2 µM (inactive); in the assay on IGROV-1, 32.2 µM (inactive); with KM12, 60.1 µM (inactive); with MDA-N, 66.2 µM (inactive); in the assay with MOLT-4, 24 µM (inactive); in the assay on Malme-3M, 25.7 µM (inactive). In addition, the GI50 was 38.9 µM (inactive) in the assay with NCI-H226; 38.5 µM (inactive) in the assay with OVCAR-8; 51.5 µM (inactive) in the assay on RPMI-8226; 33.7 µM (inactive) with SF-539; > 100 µM (inactive) in the assay with SNB-75; 41.2 µM (inactive) in the assay with SW-620. Also, the GI50 with T47D is 42.3 µM (inactive).
In the case of `Cn1c(=O)c2c(ncn2CCCCn2ccnc2[N+](=O)[O-])n(C)c1=O`, the GI50 with A549, in the assay with ACHN, with COLO 205, in the assay with HCT-116, in the assay on HT-29 and in the assay with IGROV-1 was > 100 µM (inactive) throughout. In addition, the GI50 in the assay on KM12, with LXFL 529, in the assay with MOLT-4, with Malme-3M, with NCI-H226 and in the assay with OVCAR-8 was > 100 µM (inactive) in each case. Moreover, the GI50 in the assay with RPMI-8226 is > 100 µM (inactive); in the assay on SF-539, > 100 µM (inactive); in the assay with SNB-75 it was 38.3 µM (inactive); in the assay with SW-620, > 100 µM (inactive).
For `CC(=O)O[C@H]1C[C@H](O[C@H]2[C@@H](O)C[C@H](O[C@H]3[C@@H](O)C[C@H](O[C@H]4CC[C@@]5(C)[C@H](CC[C@@H]6[C@@H]5CC[C@]5(C)[C@@H](C7=CC(=O)OC7)CC[C@]65O)C4)O[C@@H]3C)O[C@@H]2C)O[C@H](C)[C@H]1O[C@@H]1O[C@H](CO)[C@@H](O)[C@H](O)[C@H]1O`, the GI50 in the assay on A549 was < 0.01 µM (active); in the assay on ACHN it was < 0.01 µM (active); in the assay on BT-549 it was < 0.0167 µM (active); in the assay with COLO 205, 0.0491 µM (active); in the assay with HCT-116 it was < 0.01 µM (active); with HOP-92 it was 0.048 µM (active). For the same molecule, the GI50 in the assay on HT-29 was 0.0144 µM (active); with IGROV-1, < 0.01 µM (active); in the assay on KM12 it was 0.065 µM (active); with MDA-N it was 0.0398 µM (active); in the assay on MOLT-4 it was > 100 µM (inactive); with Malme-3M, 0.0278 µM (active). Also, the GI50 was 0.103 µM (active) with NCI-H226; 0.0275 µM (active) with OVCAR-8; 0.0373 µM (active) in the assay with RPMI-8226; < 0.014 µM (active) in the assay with SF-539; 0.0687 µM (active) in the assay on SNB-75; 0.0202 µM (active) in the assay on SW-620. Besides, the GI50 in the assay with T47D is 0.0387 µM (active).
